In article PMC8793334, “Validation of a System xc^– Functional Assay in Cultured Astrocytes and Nervous Tissue Samples” (Frontiers in Cellular Neuroscience, 2022):

Legend:
Assay type in all cases: cell-based
[1] = target: T1, xCT (system xc–, cystine-glutamate exchanger) (Rattus norvegicus, UniProt A0A8I6AB70); experiment: inhibition of [3H]-L-glutamate uptake in Na+-free buffer, CHO-xCT cells, concentration-response
T1 construct: gene Slc7a11; with 4F2hc (Slc3a2)

[2] = target: T1, xCT (system xc–, cystine-glutamate exchanger); experiment: radiolabeled substrate uptake in Na+-free buffer, transfected versus non-transfected CHO cells
[3] = target: T2, xCT (system xc–, cystine-glutamate exchanger) (Mus musculus, UniProt Q9WTR6); experiment: radiolabeled substrate uptake in Na+-free buffer, knockout control
T2 construct: gene Slc7a11; native exchanger in cultured astrocytes and spinal cord crude synaptosomes, wild-type versus xCT–/–; with 4F2hc (Slc3a2)
T2 sequence (Q9WTR6 1-502): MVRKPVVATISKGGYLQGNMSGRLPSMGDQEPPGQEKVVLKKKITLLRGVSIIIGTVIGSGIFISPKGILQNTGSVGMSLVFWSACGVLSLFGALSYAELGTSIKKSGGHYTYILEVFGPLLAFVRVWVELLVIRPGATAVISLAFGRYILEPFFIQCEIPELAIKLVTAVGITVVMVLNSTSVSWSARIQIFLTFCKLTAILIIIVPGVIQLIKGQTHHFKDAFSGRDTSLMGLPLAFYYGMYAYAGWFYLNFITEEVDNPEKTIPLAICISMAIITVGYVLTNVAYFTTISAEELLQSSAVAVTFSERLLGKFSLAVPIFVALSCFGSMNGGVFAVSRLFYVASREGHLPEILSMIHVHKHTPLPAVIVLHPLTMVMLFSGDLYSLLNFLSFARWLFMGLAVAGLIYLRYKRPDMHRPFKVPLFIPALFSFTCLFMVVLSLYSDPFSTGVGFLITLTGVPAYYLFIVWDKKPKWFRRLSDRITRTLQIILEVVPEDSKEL
T2 sequence (P10852 1-526 partner): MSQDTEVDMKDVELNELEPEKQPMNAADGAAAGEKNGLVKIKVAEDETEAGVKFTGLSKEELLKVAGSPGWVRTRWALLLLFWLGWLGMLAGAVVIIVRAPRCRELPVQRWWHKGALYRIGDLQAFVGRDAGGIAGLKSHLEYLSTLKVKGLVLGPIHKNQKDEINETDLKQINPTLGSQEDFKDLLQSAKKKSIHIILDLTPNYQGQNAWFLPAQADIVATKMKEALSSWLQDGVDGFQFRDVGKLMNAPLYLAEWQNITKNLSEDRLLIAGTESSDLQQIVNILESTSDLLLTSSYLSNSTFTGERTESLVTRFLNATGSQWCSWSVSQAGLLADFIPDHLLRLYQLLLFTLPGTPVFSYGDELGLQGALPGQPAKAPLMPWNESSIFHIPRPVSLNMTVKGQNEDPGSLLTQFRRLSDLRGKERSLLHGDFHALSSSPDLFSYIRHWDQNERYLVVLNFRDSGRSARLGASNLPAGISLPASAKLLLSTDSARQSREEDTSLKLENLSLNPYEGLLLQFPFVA

T1 sequence (A0A8I6AB70 1-502): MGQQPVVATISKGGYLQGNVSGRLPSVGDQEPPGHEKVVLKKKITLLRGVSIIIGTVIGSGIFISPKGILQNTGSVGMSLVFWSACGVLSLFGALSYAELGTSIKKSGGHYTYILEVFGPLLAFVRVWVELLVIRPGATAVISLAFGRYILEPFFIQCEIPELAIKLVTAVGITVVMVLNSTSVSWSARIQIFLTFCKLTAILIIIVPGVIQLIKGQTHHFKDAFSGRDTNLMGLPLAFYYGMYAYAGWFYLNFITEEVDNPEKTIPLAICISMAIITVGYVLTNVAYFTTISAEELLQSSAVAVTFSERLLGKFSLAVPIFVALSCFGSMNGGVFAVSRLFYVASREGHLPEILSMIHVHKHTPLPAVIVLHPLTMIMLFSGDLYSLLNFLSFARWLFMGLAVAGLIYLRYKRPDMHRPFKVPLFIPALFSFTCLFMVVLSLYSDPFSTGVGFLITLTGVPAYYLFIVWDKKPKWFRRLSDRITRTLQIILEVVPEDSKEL

| Structure (SMILES) | IC50 [1] [µM] | radiolabeled substrate uptake in Na+-free buffer, transfected versus non-transfe [2] | radiolabeled substrate uptake in Na+-free buffer, knockout control [3] |
| --- | --- | --- | --- |
| N[C@@H](CCS(=O)(=O)O)C(=O)O [HCA] | 5.75 |  |  |
| N[C@@H](CCC(=O)O)C(=O)O [L-glutamate] |  | [^3H]-L-glutamate uptake measured in the transfected cells was significantly higher as compared to non-transfected cells | the uptake of [^3H]-L-glutamate was barely detectable in astrocytes derived from the transgenic mice lacking xCT |
